Read-outs that look alike come from different tables or passages of the source. Values belong to the molecule of their own block, whether it stands above or below them. Bridge positions count the residues as written; N and C are the ends. Square brackets hold non-standard residues; d marks the D form. Peptide text beside a SMILES is read from it. d2Nal = N[C@H](Cc1ccc2ccccc2c1)C(=O)O; Bta = N[C@@H](Cc1csc2ccccc12)C(=O)O; GABA = NCCCC(=O)O; βAla = NCCC(=O)O
Tests used:
hMC3-R = biological target: T1, hMC3-R (Homo sapiens, UniProt P41968); assay: cyclic AMP bioassay (ECL) in CHO-K1 cells; type: cell-based; settings: for Kb: antagonist potency by Schild analysis, cAMP, CHO-K1 cells expressing hMC3-R, read-out: Kb hMC3-R
T1 construct: expressed in transfected cells; host or cells: CHO-K1
T1 sequence (P41968 whole entry): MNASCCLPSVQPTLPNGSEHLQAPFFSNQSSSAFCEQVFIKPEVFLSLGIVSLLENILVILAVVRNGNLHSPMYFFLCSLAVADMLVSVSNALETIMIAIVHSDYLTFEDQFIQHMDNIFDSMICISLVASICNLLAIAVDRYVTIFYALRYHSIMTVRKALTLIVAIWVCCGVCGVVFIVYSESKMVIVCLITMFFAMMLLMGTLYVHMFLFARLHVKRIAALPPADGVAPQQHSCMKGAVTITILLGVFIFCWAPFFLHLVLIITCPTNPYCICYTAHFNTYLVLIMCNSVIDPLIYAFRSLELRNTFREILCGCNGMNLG
Procedure: Intracellular cyclic AMP (cAMP) levels were determined by an electrochemiluminescence (ECL) assay (Meso Scale Discovery®, Gaithersburg, Md.; referred to hereinafter as MSD). […] Transgenic CHO-K1 cells stably expressing hMC receptor subtypes 1, 3, 4 or 5 were dispensed at a density of approximately 7,000 cells/well in 384-well Multi-Array®plates (MSD) containing integrated carbon electrodes and coated with anti-cAMP antibody. Increasing concentrations of the test compounds were added and the cells were incubated for approximately 40 minutes at approximately 37° C. […] At the end of the second incubation period read buffer (Tris-buffered solution containing an ECL co-reactant and Triton X-100 at ph 7.8) was added and the cAMP levels in the cell lysates were immediately determined by ECL detection with a Sector Imager 6000 Reader® (MSD). Data were analyzed using a computer-assisted non-linear regression analysis (XL fit; IDBS) and reported as either an EC50 value or a Kb value.
The Kb value reflects the potency of an antagonist and is determined by Schild analysis. In brief, concentration-response curves of an agonist are carried out in the presence of increasing concentrations of an antagonist. […] It is calculated by extrapolating the line on a Schild plot to zero on the y-axis.

hMC4-R = biological target: T2, hMC4-R (Homo sapiens, UniProt P32245); assay: cyclic AMP bioassay (ECL) in CHO-K1 cells; type: cell-based; settings: for Kb: antagonist potency by Schild analysis, cAMP, CHO-K1 cells expressing hMC4-R, read-out: Kb hMC4-R
T2 construct: expressed in transfected cells; host or cells: CHO-K1
T2 sequence (P32245 whole entry): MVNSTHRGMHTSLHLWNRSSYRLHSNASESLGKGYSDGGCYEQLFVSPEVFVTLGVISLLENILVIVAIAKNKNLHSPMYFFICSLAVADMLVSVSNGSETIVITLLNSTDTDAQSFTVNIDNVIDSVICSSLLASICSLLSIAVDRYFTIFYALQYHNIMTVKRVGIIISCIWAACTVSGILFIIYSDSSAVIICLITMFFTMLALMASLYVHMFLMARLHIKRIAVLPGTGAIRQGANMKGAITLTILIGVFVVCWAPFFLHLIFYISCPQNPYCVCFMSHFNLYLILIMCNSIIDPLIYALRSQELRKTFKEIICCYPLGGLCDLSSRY

hMC1-R [1] = biological target: T3, hMC1-R (Homo sapiens, UniProt Q01726); assay: cyclic AMP bioassay (ECL) in CHO-K1 cells; type: cell-based
T3 construct: expressed in transfected cells; host or cells: CHO-K1
T3 sequence (Q01726 whole entry): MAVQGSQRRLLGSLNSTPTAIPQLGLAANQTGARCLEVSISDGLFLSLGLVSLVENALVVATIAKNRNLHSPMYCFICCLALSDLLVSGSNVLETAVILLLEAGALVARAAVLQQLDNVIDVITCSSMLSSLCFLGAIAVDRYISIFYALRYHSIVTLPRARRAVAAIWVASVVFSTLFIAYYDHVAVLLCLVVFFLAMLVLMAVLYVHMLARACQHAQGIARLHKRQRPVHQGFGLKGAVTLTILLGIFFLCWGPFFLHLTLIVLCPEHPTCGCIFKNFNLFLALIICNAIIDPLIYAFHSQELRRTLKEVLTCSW

hMC5-R [2] = biological target: T4, hMC5-R (Homo sapiens, UniProt P33032); assay: Radioligand binding assay, [125I]-NDP-α-MSH competition, CHO-K1 membranes
T4 construct: expressed in transfected cells; host or cells: CHO-K1
T4 sequence (P33032 whole entry): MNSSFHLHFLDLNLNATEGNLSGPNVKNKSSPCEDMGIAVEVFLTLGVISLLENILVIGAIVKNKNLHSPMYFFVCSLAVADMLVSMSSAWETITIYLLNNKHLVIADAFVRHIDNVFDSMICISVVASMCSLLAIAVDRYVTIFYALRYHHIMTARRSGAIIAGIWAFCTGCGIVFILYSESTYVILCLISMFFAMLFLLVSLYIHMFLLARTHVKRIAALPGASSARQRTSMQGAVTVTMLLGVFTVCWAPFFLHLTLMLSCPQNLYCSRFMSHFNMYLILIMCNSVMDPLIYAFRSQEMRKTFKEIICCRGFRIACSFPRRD
Procedure: (§1) Cellular membranes used for the in vitro receptor binding assays were obtained from transgenic CHO-K1 cells stably expressing hMC-R receptor subtypes 1, 3, 4 or 5. […] The pellets were resuspended in the same buffer and centrifuged at 50,000 g for 10 minutes at approximately 4° C. The washed pellets containing the cellular membranes were stored at approximately −80° C.
(§2) Cell membranes (1-10 μg protein/well) prepared as described above were incubated in 50 mM Tris-HCl at pH 7.4 containing 0.2% bovine serum albumin (BSA), 5 mM MgCl2, 1 mM CaCl2 and 0.1 mg/mL bacitracin, with increasing concentrations of the test compound and 0.1-0.3 nM [^25I]-NDP-α-MSH for approximately 90-120 minutes at approximately 37° C. […] Filters were washed three times with 50 mM Tris-HCl at pH 7.4 at a temperature of approximately 0-4° C. and then assayed for radioactivity using a Packard Topcount® scintillation counter. Binding data were analyzed by computer-assisted non-linear regression analysis (XL fit; IDBS).

hMC5-R [3] = biological target: T4, hMC5-R; assay: cyclic AMP bioassay (ECL) in CHO-K1 cells; type: cell-based
hMC1-R [4] = biological target: T3, hMC1-R; assay: Radioligand binding assay, [125I]-NDP-α-MSH competition, CHO-K1 membranes; settings: Table 5; read-out: Ki hMC1-R
Procedure: as §1, §2

[5] = cAMP, CHO-K1 cells expressing hMC1-R, read-out: EC50 hMC1-R
[6] = cAMP, CHO-K1 cells expressing hMC5-R, read-out: EC50 hMC5-R

Structure (SMILES): CC(=O)N[C@H]1CSSC[C@@H](C(=O)N2CCC[C@H]2C(=O)N2CCC[C@H]2C(=O)N[C@@H](CCCCN)C(=O)N[C@@H](CC(=O)O)C(=O)NCCC(=O)N[C@@H](Cc2ccc(O)cc2)C(=O)NCC(=O)N[C@@H](CCCNC(=N)N)C(=O)N[C@@H](CCCCN)C(=O)N[C@@H](CCCCN)C(=O)N[C@@H](CCCNC(=N)N)C(=O)N[C@@H](CCCNC(=N)N)C(=O)N[C@@H](CCC(N)=O)C(=O)N[C@@H](CCCNC(=N)N)C(=O)N[C@@H](CCCNC(=N)N)C(=O)N[C@@H](CCCNC(=N)N)C(N)=O)NC(=O)[C@H](C)NC(=O)[C@H](Cc2csc3ccccc23)NC(=O)[C@H](CCCNC(=N)N)NC(=O)[C@@H](Cc2ccc3ccccc3c2)NC(=O)[C@H](Cc2c[nH]cn2)NC(=O)[C@H](CCC(=O)O)NC1=O
Kb (hMC3-R): 112 nM | Kb (hMC4-R): 41.1 nM | EC50 (hMC1-R [1]; [5]): 37.9 nM | Ki (hMC5-R [2]; Table 6, read-out: Ki hMC5-R): 15.3 nM | EC50 (hMC5-R [3]; [6]): 1800 nM

Structure (SMILES): CC(=O)N[C@H]1CSSC[C@@H](C(=O)N2CCC[C@H]2C(=O)N2CCC[C@H]2C(=O)N[C@@H](CCCCN)C(=O)N[C@@H](CC(=O)O)C(=O)NCCC(=O)NCC(=O)N[C@@H](CCCNC(=N)N)C(=O)N[C@@H](CCCNC(=N)N)C(=O)N[C@@H](CCCNC(=N)N)C(=O)N[C@@H](CCCNC(=N)N)C(=O)N[C@@H](CCCNC(=N)N)C(=O)N[C@@H](CCC(N)=O)C(=O)N[C@@H](CCCNC(=N)N)C(=O)N[C@@H](CCCNC(=N)N)C(=O)N[C@@H](CCCNC(=N)N)C(N)=O)NC(=O)[C@H](C)NC(=O)[C@H](Cc2csc3ccccc23)NC(=O)[C@H](CCCNC(=N)N)NC(=O)[C@@H](Cc2ccc3ccccc3c2)NC(=O)[C@H](Cc2c[nH]cn2)NC(=O)[C@H](CCC(=O)O)NC1=O (Ac-CEH[d2Nal]R[Bta]ACPPKD[βAla]GRRRRRQRRR-NH2; disulfide 1-8)
Kb (hMC3-R): 104 nM | Kb (hMC4-R): 32 nM | EC50 (hMC1-R [1]; [5]): 146 nM | Ki (hMC5-R [2]; Table 6, read-out: Ki hMC5-R): 165 nM | EC50 (hMC5-R [3]; [6]): 1400 nM

EC50 (hMC3-R; Table 9A/9B, read-out: EC50 hMC3-R): 2.89 nM | EC50 (hMC4-R; Table 9A/9B, read-out: EC50 hMC4-R): 0.055 nM | EC50 (hMC1-R [1]; Table 9A/9B, read-out: EC50 hMC1-R): 1.39 nM | Ki (hMC5-R [2]; Table 5, read-out: Ki hMC5-R): 783 nM | EC50 (hMC5-R [3]; Table 9A/9B, read-out: EC50 hMC5-R): 467 nM
Structure (SMILES): CC(=O)N[C@@H](CCCNC(=N)N)C(=O)N[C@H]1CC(=O)NCCCC[C@@H](C(N)=O)NC(=O)[C@H](C)NC(=O)[C@H](Cc2c[nH]c3ccccc23)NC(=O)[C@H](CCCNC(=N)N)NC(=O)[C@@H](Cc2ccccc2)NC(=O)[C@H](Cc2c[nH]cn2)NC1=O [Ac-Arg-c(Asp-His-D-Phe-Arg-Trp-Ala-Lys)-NH2]

Ki (hMC1-R [4]): 0.323 nM
Structure (SMILES): CCCC[C@H](NC(C)=O)C(=O)N[C@H]1CSSC[C@@H](C(N)=O)NC(=O)CCNC(=O)[C@@H](Cc2c[nH]c3ccccc23)NC(=O)[C@H](CCCNC(=N)N)NC(=O)[C@@H](Cc2ccccc2)NC(=O)[C@H](Cc2c[nH]cn2)NC1=O [Ac-Nle-c(Cys-His-D-Phe-Arg-D-Trp-β-Ala-Cys)-NH2]

Ki (hMC1-R [4]): 0.256 nM
Structure (SMILES): CC(=O)N[C@H](C(=O)N[C@H]1CSSC[C@@H](C(N)=O)NC(=O)CCCNC(=O)[C@H](Cc2c[nH]c3ccccc23)NC(=O)[C@H](CCCNC(=N)N)NC(=O)[C@@H](Cc2ccccc2)NC(=O)[C@H](Cc2c[nH]cn2)NC1=O)C(C)C [Ac-Val-c(Cys-His-D-Phe-Arg-Trp-Gaba-Cys)-NH2] (Ac-VCH[dF]RW[GABA]C-NH2; disulfide 2-8 (inferred))

Structure (SMILES): C[C@H]1NC(=O)[C@@H](NC(=O)CN2C(=O)N[C@@H](CCCNC(=N)N)C2=O)CSSC[C@@H](C(N)=O)NC(=O)[C@H](Cc2c[nH]c3ccccc23)NC(=O)[C@H](CCCNC(=N)N)NC(=O)[C@@H](Cc2ccc3ccccc3c2)NC(=O)[C@H](Cc2cnc[nH]2)NC1=O [Hydantoin(C(O)-(Arg-Gly))-c(Cys-D-Ala-His-D-2-Nal-Arg-Trp-Cys)-NH2]
EC50 (hMC3-R): 13.1 nM | EC50 (hMC4-R): 21.2 nM | EC50 (hMC1-R [1]): 96.6 nM | Ki (hMC5-R [2]; Ki hMC5, Table 7): 14.6 nM | EC50 (hMC5-R [3]): 103 nM

Structure (SMILES): C[C@H]1NC(=O)[C@@H](NC(=O)CN2C(=O)CNC2=O)CSSC[C@@H](C(N)=O)NC(=O)[C@H](Cc2c[nH]c3ccccc23)NC(=O)[C@H](CCCNC(=N)N)NC(=O)[C@@H](Cc2ccccc2)NC(=O)[C@H](Cc2cnc[nH]2)NC1=O [Hydantoin(C(O)-(Gly-Gly))-c(Cys-D-Ala-His-D-Phe-Arg-Trp-Cys)-NH2]
EC50 (hMC3-R): 2.46 nM | EC50 (hMC4-R): 0.336 nM | EC50 (hMC1-R [1]): 14.2 nM | Ki (hMC5-R [2]; Ki hMC5, Table 7): 50 nM | EC50 (hMC5-R [3]): 201 nM
